The values that follow come from patent US20250115578A1, “AROMATIC FUSED RING NAV1.8 INHIBITOR, AND USE THEREOF” (CHENGDU KANGHONG PHARMACEUTICAL CO., LTD., priority 2022, published 2025).

Series [1] deals with STZ-induced diabetic neuropathic heat pain model. As to conditions: cited from earlier work.
Another series deals with animal models of pain. As to conditions: carrageenan, CFA, CCI, SNL and acute mechanical pain models; cited from earlier work.
Another series concerns CFA and SNL models. As to conditions: cited from earlier work.
A further series has as its system postoperative toothache. As to conditions: phase II; cited from earlier work.
In the next series the target is hNav1.8 (Homo sapiens (Human), UniProt Q9Y5Y9). The series is described as follows: Manual patch clamp, Method 1 (CHO cell line stably expressing hNav1.8). Format: cell-based. From the text: The patch clamp technique is known as the “gold standard” for studying ion channels, and it uses glass microelectrodes to seal the cell membrane to measure the currents of various membrane channel. […] Patch clamp technology can evaluate the inhibition strength of different compounds on different states of Navs by measuring the changes of membrane channel currents after different compounds bind to different states of Navs.
The representative compounds of the present invention used stable CHO or HEK293 cell lines transfected with specific ion channels to measure the effect of the compounds on Nav1.8 currents by manual patch clamp test, to evaluate their inhibition strength.
The assay protocol of manual patch clamp is as follows:
CHO cell lines with stable expression of hNav1.8 were cultured in F12 medium containing 10% fetal bovine serum at a constant temperature of 37° C., and the carbon dioxide concentration was maintained at 5%. The old culture medium was removed and washed once with PBS, then 1 mL 0.25%-Trypsin-EDTA solution was added and incubated at 37° C. for 1 min. When the cells were detached from the bottom of the dish, 5 mL of the complete medium preheated at 37° C. was added, and the aggregated cells were separated by gently blowing with a straw. The cell suspension was transferred into a sterile centrifuge tube and centrifuged at 1000 rpm for 5 min to collect cells. The cells were then inoculated into a cell culture dish with a diameter of 6 cm (2.5×10^5 cells/petri dish, 5 mL medium) for expansion or maintenance.
In order to maintain the electrophysiological activity of the cells, the cell density must be less than 80%.
The cells were separated with 0.25%-Trypsin-EDTA before the assay, and 5×10^3 cells were seeded on a cover slip and cultured in a 24-well plate (final volume: 500 μL) for 18 h. Then the assay was conducted.
The compounds prepared in the examples of the present invention were dissolved in dimethyl sulfoxide (DMSO) and prepared into DMSO stock solution with a concentration of 10 mM for assay. And it was diluted to various concentrations with extracellular solution (140 mM NaCl, 3.5 mM KCl, 1 mM MgCl2, 2 mM CaCl2), 10 mM Glucose, 10 mM HEPES, 1.25 mM NaH2PO4, pH=7.4 regulated by NaOH), and the final concentration of DMSO in each compound sample was 0.10% or less.
A capillary glass pipette (BF150-86-10, Sutter Instruments) was pulled into a recording electrode with a micropipette puller (P97, Sutter Instruments). The micromanipulator (MP285, Sutter Instruments) was manipulated under an inverted microscope (IX71, Olympus) to make the recording electrode contact the cell and negative pressure suction was applied to achieve a GQ seal. Then, rapid capacitance compensation was performed, and negative pressure was continued, cell membrane was broken by suction, and whole cell recording mode was formed. Then the slow capacitance was compensated and the membrane capacitance and series resistance were recorded without leakage compensation. When the whole cell recording current was stabilized, dosing was initiated, and the next concentration was detected after acting 5 minutes of each drug concentration. Multiple cells were independently repeated during the recording period. All electrophysiological assays were performed at room temperature. Specifically, 6 concentrations (measuring IC50) or 2 concentrations (preliminary screening) were set for each compound, and the percentage of inhibition of sodium channels was determined by calculating the relative percentage of peak current generated before and after each concentration compound treated cells, and the IC50 value or percentage of inhibition at a specific concentration was calculated using IGOR pro software.
In general terms: Patch clamp records ionic current or voltage across a cell membrane.

For series [2], the system named is postoperative pain model in rats. The series can be described thus: Efficacy test in postoperative pain model in rats (mechanical allodynia, PWT). Format: in vivo, Sprague-Dawley male rats. As to conditions: single oral 30 mg/kg, at 2 h and 4 h after administration. Here is the method:
Sprague-Dawley male rats, purchased from Zhejiang Vital River Laboratory Animal Technology Co., LTD
Compounds of the example 10, 14, 16, 31 of the invention were weighted and prepared into solutions of 3 mg/mL using 5% DMSO (Anhui Senrise Technologies Co., Ltd)+30% Solutol HS15 (Beijing Ouhe Technology Co., LTD.)+65% water for injection, and administered at a volume of 10 mL/kg by gavage. The dosage was 30 mg/kg.
Animals were anesthetized with Zoletil 50+ Xylazine Hydrochloride (20 mg/kg+8 mg/kg, intraperitoneally injected). The surgical area on the plantar skin of the left hind paw was disinfected three times with iodophor and 70% ethanol, and the surgery was started after the skin was dry.
A longitudinal incision about 1 cm was made towards the toes starting from 0.5 cm away from the heel of the left hind paw. After the skin was incised, the flexor digitorum brevis was raised and longitudinal blunt injury was caused. After hemostasis by pressing, the wound was sutured. After surgery, animals were placed on an electric warm pad and 5 mL of physiological saline was injected subcutaneously to prevent dehydration. 24 h after modeling, all animals (including the normal control group) were tested for base mechanical allodynia (PWT). The modeling animals without mechanical hypersensitivity (PWT greater than 5 g) were excluded and […] were selected and randomly divided into 5 groups, with 9 animals in each group except 5 in the normal group (negative control group).
The animals were weighed and administered orally at a volume of 10 mL/kg. Except normal control animals, other animals were given a single dose of compounds, and mechanical allodynia was performed by test fibers on all groups of animals at 1 h, 2 h and 4 h after dosing. The rats were placed individually in a plexiglass box with a grid at the bottom to ensure that the paws of the rats could be tested. The rats would acclimate for 15 minutes before the test. After the acclimation was completed, the test fibers were used to test on the plantar center of the rat's left hind paw. Pressed the test fiber vertically against the skin and applied force to bend the fiber for 6 to 8 seconds, with 5 second intervals between each test. The rapid withdrawal of the animal's paws during the test was recorded as a pain response. The animal's paw withdrawal when the fibers left the animal's skin was also recorded as a pain response. If the animal moves or walks around, it's not recorded as a pain response, and the test should be repeated.
Mechanical hyperalgesia was expressed as the paw withdrawal threshold (PWT) in the rat behavioral test, which was calculated according to the following formula:
50% response threshold (g)=(10^(Xf+kδ)/10,000 • Xf=final test fiber value used in the test • k=table value (Chaplan et al. 1994, page 62) • δ=mean deviation
Data were collected with excel software and analyzed with Prism 7.0 (Graph pad software, Inc.) software by two-way ANOVA followed by Dunnett multiple comparison test.

Series [3] in a line: Assay of kinetic solubility. Format: physicochemical. As to conditions: aqueous buffer, kinetic from dmso stock, pH 3.5 phosphate buffer, 25° C. On the procedure: The stock solutions of the test compound and the standard progesterone were prepared in DMSO at the concentration of 10 mM.
30 μL of stock solutions at 10 mM of the test compounds and standard substance were placed in order into their proper 96-well plate. 970 μL phosphate buffer at the specified pH was added to the proper vial of the sample plate. The assay was performed in duplicate. A stirring stick was added to each vial and the teflon/silicone plug was capped. The sample tray was then placed in the Eppendorf Thermomixer Comfort and shaken at 1100 RPM at 25° C. for 2 hours. After 2 hours, plugs were removed, a big magnet was used to remove the stirring sticks, and samples were transferred from the sample plate to the filter plate. Vacuum pump was used to create negative pressure and filtered the samples. Transferred 5 μL of the filtrate to the new sample plate, then added 5 μL DMSO and 490 μL water/acetonitrile (V/V=1/1) to dilute the solvent. The dilution factor may be adjusted according to the solubility values of the substances to be tested or the strength of its LC-MS signal response.
From the 10 mM DMSO stock solution, 15 μL of that was transferred into the empty plate and 485 μL DMSO was added to prepare a 300 μM standard solution. From the 300 μM standard solution plate, 5 μL of that was transferred to another empty plate and 5 μL phosphate buffer at specified pH and 490 μL water/acetonitrile (V/V=1/1) dilution solvent were added to the standard solution to get a final concentration of 3 μM. The concentration of the standard solution may be adjusted according to the strength of its LC-MS signal response.
The sample plate was placed into the sample tray of the automatic sampler and the samples were evaluated by LC-MS/MS analysis.
All calculations were carried out by Microsoft Excel.
The sample filtrate was analyzed and quantified against a standard of known concentrations using LC-MS spectral peaks to identify and quantify. The solubility values of the control drug and the compounds to be tested were calculated as the following formula: • [Sample]: concentration of the sample • AREASample: peak area of the sample • INJ VOLStd: standard sample injection volume • DFSample: sample dilution factor • [STD]: standard substance concentration • AREAStd: peak area of standard substance • INJ VOLSample: sample injection volume

The target in the next series is Human Nav1.8 ion channel (Homo sapiens (Human), UniProt Q9Y5Y9). The series is described as follows: Manual patch clamp, Method 2 (HEK293 cells stably expressing human Nav1.8, resting state). The class given is cell-based. As to conditions: Method 2, HEK293-hNav1.8, resting state, 1 μM TTX; read-out: IC50 inhibitory activity against hNav1.8.
Series [4] in a line: Stability assay for human liver microsomes in vitro. As to conditions: 1 μM compound, 0.5 mg/mL liver microsomes, read-out: Human liver microsome stability T1/2. The class given is in vitro ADME. On the procedure:
• Human liver microsomes, purchased from Corning or Xenotech, stored in a −80° C. refrigerator. • Nicotinamide adenine dinucleotide phosphate (NADPH), Chem-impex international, 00616 • Control compounds: testosterone, diclofenac, propafenone
• Water bath (HH-60, Guohua, Changzhou, China) • Pipette workstation (PP-550DS, Apricot, Covina, USA) • Centrifuge (5810R, Eppendorf, Hamburg, Germany) • Mass Spectrometer (Sciex API 4000, Singapore) • High Performance Liquid Chromatography (LC 20-AD, Shimadzu, Kyoto, Japan) • Sampler (ADDA, Apricot Designs, California, USA)
• Stock solution: 10 mM in DMSO • Working solution concentration preparation: 10 mM stock solution was diluted to 100 μM with 100% acetonitrile (organic phase content: 99% ACN, 1% DMSO)
Two 96-well incubation plates were named T60 incubation plate and NCF60 incubation plate.
445 μL microsomal working solution (liver microsomal protein concentration: 0.56 mg/mL) was added to the T60 and NCF60 incubation plates respectively, then the incubation plates above were placed in a water bath at 37° C. for pre-incubation approximately 10 minutes.
After the pre-incubation finished, 5 μL of the test compound working solution was added to the T60 and NCF60 incubation plates respectively, and mixed well. 50 μL potassium phosphate buffer was added to each well on the NCF60 incubation plate to start the reaction. 180 μL termination solution (acetonitrile solution containing 200 ng/mL tolbutamide and 200 ng/mL labetalol) and 6 uL working solution of NADPH regeneration system were added to the TO termination plate, and 54 μL samples were removed from the T60 incubation plate to the TO termination plate (TO sample generated). The reaction was initiated by adding 44 μL of NADPH regenerating system working solution per well on the T60 incubation plate. Only 54 μL microsomal working solution, 6 uL NADPH regeneration system working solution, and 180 μL termination solution were added to the Blank plate. Therefore, in the samples of the test or control compounds, the final reaction concentration of the compounds, testosterone, diclofenac and propafenone was 1 μM, the concentration of the liver microsomes was 0.5 mg/mL, and the final concentration of DMSO and acetonitrile in the reaction system was 0.01% (v/v) and 0.99% (v/v), respectively.
After incubation for an appropriate time (e.g. 5, 10, 20, 30, and 60 minutes), 180 μL of termination solution (acetonitrile solution containing 200 ng/mL tolbutamide and 200 ng/mL labetalol) was added to the sample hole of each termination plate, respectively. After that, 60 μL sample was removed from the T60 incubation plate to terminate the reaction.
All sample plates were shaken evenly and centrifuged at 3220×g for 20 min. Then 80 μL supernatant was taken from each well and diluted to 240 μL pure water for LC-MS/MS analysis.
All samples were injected for analysis.
A general note: Liver microsomes are vesicles of endoplasmic reticulum, rich in cytochrome P450 enzymes.

≈ marks a conversion by molar mass, not a printed value. Where two headings read alike, the source gives them in different places.

Chain of hNav1.8 (Q9Y5Y9 whole entry): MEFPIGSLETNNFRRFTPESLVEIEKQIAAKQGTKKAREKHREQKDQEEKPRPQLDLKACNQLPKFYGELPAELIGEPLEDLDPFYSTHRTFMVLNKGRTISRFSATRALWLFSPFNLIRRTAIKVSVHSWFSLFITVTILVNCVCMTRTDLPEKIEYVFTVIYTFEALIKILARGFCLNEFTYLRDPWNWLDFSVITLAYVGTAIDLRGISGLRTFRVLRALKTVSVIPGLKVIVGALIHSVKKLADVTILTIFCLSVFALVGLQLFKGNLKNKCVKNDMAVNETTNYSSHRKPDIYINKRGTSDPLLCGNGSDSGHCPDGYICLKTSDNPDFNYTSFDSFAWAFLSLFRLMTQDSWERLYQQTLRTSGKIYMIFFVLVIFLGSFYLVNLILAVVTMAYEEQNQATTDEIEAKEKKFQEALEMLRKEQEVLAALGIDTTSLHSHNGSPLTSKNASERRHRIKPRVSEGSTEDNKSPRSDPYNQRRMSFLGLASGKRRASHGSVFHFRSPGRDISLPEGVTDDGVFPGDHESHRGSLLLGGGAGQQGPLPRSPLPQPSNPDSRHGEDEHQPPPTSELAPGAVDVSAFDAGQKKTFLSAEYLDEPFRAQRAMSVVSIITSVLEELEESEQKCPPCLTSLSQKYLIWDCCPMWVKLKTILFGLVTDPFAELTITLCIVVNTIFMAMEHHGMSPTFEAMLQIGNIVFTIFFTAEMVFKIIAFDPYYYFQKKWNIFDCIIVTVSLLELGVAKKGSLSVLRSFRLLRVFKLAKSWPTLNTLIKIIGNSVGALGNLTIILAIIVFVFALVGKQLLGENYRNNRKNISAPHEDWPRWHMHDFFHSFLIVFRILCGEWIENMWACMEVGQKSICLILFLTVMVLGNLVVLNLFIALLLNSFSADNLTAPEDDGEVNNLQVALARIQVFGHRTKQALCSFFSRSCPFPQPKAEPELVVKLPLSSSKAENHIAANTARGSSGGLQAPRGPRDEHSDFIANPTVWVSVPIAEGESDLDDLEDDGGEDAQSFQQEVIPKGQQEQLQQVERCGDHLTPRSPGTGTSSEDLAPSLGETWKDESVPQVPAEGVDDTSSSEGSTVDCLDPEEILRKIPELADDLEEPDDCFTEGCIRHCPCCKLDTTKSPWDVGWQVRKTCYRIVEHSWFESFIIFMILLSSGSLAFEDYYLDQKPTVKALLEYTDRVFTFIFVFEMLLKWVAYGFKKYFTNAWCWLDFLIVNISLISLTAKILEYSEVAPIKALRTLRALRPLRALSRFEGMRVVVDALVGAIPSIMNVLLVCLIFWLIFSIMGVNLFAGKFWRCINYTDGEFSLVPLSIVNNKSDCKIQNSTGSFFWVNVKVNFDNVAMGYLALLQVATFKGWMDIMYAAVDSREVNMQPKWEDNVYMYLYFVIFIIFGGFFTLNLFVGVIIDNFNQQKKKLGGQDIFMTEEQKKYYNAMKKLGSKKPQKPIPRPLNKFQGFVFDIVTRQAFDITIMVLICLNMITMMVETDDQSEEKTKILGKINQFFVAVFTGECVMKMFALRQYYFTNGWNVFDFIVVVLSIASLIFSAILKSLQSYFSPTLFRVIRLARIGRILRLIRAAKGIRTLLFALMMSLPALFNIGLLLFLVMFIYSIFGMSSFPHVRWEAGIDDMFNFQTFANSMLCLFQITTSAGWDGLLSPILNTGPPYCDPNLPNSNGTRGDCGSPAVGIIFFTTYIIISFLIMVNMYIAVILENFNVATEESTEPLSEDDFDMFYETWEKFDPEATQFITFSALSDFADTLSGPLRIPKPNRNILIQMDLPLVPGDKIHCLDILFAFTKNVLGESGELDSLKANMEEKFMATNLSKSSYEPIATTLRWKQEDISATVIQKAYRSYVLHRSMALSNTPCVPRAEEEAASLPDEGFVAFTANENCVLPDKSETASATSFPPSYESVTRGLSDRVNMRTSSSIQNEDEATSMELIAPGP

For `COc1cc(NC(=O)c2ccc(-c3ccc(Cl)cc3)o2)cc(OC)c1` [Example A-803467], the “Duration of efficacy versus lidocaine” value in series [1] (local injection of plantar) is listed as “lasted longer”. In addition, the Efficacy versus lidocaine result in series [1] (local injection of plantar) was “equivalent”; in series [1] (systemic administration), “superior to lidocaine”. Moreover, the “Pain relief effect compared with the model group” value in the series on animal models of pain was “exceeding 50%”.

With `CNC(=O)c1ccc(-c2cc(Cl)cc(Cl)c2Cl)c(N)n1` [PF-01247324], the Pain relief result in the series with CFA and SNL models is on record as “significant pain relief”.

On to `COc1ccc(Cl)c(-c2ccc(NC(=O)c3ccnn3C)nc2N)c1` [PF-04531083], for which the Activity versus placebo entry in the series with postoperative toothache is recorded as “did not show better activity than placebo”.

What is called inhibition is the share of the control response that was lost under treatment. The kinetic solubility is solubility judged after dilution from a stock solution rather than from solid. `NS(=O)(=O)c1cc(NC(=O)c2cc(Cl)c(C(F)(F)F)cc2N2CCCC(F)(F)CC2)ccn1` [Example 31, 5-chloro-2-(4,4-difluoroazepan-1-yl)-N-(2-sulfamoylpyridin-4-yl)-4-trifluoromethylbenzamide, reference compound]: on hNav1.8 (100 nM, Method 1, CHO-hNav1.8, read-out: Inhibition rate of hNav1.8), the inhibition at 0.1 µM was 97.1%. The “Inhibition of mechanical hyperalgesia induced by postoperative pain model” value in series [2] is “inhibited mechanical hyperalgesia”. In series [3], this compound gave a solubility (kinetic) at 2 h of 0.69 µM (≈ 0.354 µg/mL).

What is called IC50 is the point on the concentration scale where inhibition reaches its midpoint. Turning to `NC(=O)c1cc(NC(=O)c2cc3ccccc3nc2N2CCCC(F)(F)CC2)ccc1F` [Example 09, N-(3-carbamoyl-4-fluorophenyl)-2-(4,4-difluoroazepan-1-yl)quinoline-3-carboxamide], the inhibition at 0.01 µM at hNav1.8 (10 nM, Method 1, CHO-hNav1.8, read-out: Inhibition rate of hNav1.8) turned out to be 91.3%. Also, the IC50 on hNav1.8 (Method 1, CHO-hNav1.8, manual patch clamp, resting state, read-out: IC50 inhibitory activity against hNav1.8) came to 1 nM; at Human Nav1.8 ion channel it was 0.918 nM. In series [4], the half-life at 1 µM is 22.3 min. Further, the solubility (kinetic) at 2 h in series [3] worked out at 157 µM (≈ 69.6 µg/mL).
